ChEMBL document CHEMBL3045053, “Synthesis of the quinoline-linked triazolopyrimidine analogues and their interactions with the recombinant tobacco acetolactate synthase” (Biochem Biophys Res Commun, 1999)
Activity calls are given as the source filed them. The rule behind the calls is not given here.

What was measured:
[1] = target: T1, Acetolactate synthase (Nicotiana tabacum) (UniProt C0L093); experiment: Inhibition of wild type Nicotiana tabacum (tobacco) GST-tagged acetolactate synthase expressed in Escherichia coli at 1 mM by modified Westerfeld method
T1 sequence (whole entry): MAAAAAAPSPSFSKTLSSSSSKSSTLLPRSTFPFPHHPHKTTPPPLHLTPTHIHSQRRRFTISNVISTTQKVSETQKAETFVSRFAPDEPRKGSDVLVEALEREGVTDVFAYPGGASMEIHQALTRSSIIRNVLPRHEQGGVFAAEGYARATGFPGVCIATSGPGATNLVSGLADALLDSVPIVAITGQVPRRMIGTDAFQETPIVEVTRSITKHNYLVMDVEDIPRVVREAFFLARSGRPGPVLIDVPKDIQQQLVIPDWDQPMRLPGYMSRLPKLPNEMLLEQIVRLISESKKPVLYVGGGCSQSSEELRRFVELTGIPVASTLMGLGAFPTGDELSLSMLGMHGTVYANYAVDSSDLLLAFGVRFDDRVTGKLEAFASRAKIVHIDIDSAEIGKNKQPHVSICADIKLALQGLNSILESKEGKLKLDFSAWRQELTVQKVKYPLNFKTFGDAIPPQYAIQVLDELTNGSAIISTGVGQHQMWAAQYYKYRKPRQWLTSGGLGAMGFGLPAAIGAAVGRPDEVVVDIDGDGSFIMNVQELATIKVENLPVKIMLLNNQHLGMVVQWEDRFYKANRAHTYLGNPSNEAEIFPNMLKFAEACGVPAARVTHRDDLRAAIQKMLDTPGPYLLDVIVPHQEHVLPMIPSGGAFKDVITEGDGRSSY

Acetolactate synthase [2] = target: T2, Acetolactate synthase (Nicotiana tabacum, UniProt C0L093); experiment: Inhibition of wild type Nicotiana tabacum (tobacco) GST-tagged acetolactate synthase expressed in Escherichia coli by modified Westerfeld method
T2 sequence (C0L093 whole entry): T1 sequence (whole entry)

Acetolactate synthase [3] = target: Acetolactate synthase (Nicotiana tabacum, UniProt C0L093); experiment: Inhibition of wild type Nicotiana tabacum (tobacco) S4-Hra GST-tagged acetolactate synthase mutant expressed in Escherichia coli by modified Westerfeld method

inhibition [1]	Compound	IC50 (Acetolactate synthase [2]) [nM]	IC50 (Acetolactate synthase [3]) [nM]
inactive	Cc1ccn2nc(S(=O)(=O)Nc3cccc4cnccc34)nc2n1		
inactive	Cc1ccn2nc(S(=O)(=O)Nc3cccc4ncccc34)nc2n1		
inactive	Cc1cc(C)n2nc(S(=O)(=O)Nc3cccc4ncccc34)nc2n1		
	Cc1ccn2nc(S(=O)(=O)Nc3c(C#N)ccc4cccnc34)nc2n1	64	
	Cc1ccn2nc(S(=O)(=O)Nc3c(F)ccc4cccnc34)nc2n1	17.1	16500
	Cc1ccn2nc(S(=O)(=O)Nc3c(F)cccc3F)nc2n1 [FLUMETSULAM]	31.6	939
inactive	Cc1ccn2nc(S(=O)(=O)Nc3nccc4ccccc34)nc2n1		
	Cc1cc(C)n2nc(S(=O)(=O)Nc3c(F)ccc4cccnc34)nc2n1	7.7	14700
inactive	Cc1cc(C)n2nc(S(=O)(=O)Nc3cccc4cnccc34)nc2n1		
inactive	Cc1cc(C)n2nc(S(=O)(=O)Nc3nccc4ccccc34)nc2n1		
	Cc1cc(C)n2nc(S(=O)(=O)Nc3cccc4cccnc34)nc2n1	32.3	
	Cc1ccn2nc(S(=O)(=O)Nc3c(Br)ccc4cccnc34)nc2n1	19.2	
	Cc1cc(C)n2nc(S(=O)(=O)Nc3c(Br)ccc4cccnc34)nc2n1	8.7	
	Cc1ccn2nc(S(=O)(=O)Nc3c(Cl)ccc4cccnc34)nc2n1	37.2	
	Cc1cc(C)n2nc(S(=O)(=O)Nc3c(Cl)ccc4cccnc34)nc2n1	9.4	
